Measured values taken from ChEMBL document CHEMBL3091359, “Potent oxazolidinone antibacterials with heteroaromatic C-ring substructure” (ACS Med Chem Lett, 2013).
In brackets after ≈: the same amount, converted by molar mass.

How the values were obtained:
[1] = Cmax in ICR mouse at 5.56 mg/kg, po by LC-MS/MS analysis; format: ADME, organism-based; design: dose 5.56 mg/kg, route oral; conditions: in vivo
[2] = tested on: Staphylococcus aureus; assay: Potency index, ratio of linezolid ED50 to compound ED50 for methicillin-resistant Staphylococcus aureus SR3637 in po dosed JCL/ICR mouse systemic infection model; format: functional
[3] = tested on: Staphylococcus aureus; assay: Ratio of linezolid MIC to compound MIC for Staphylococcus aureus SR20549 clinical isolate; format: functional
[4] = tested on: Haemophilus influenzae; assay: Antibacterial activity against Haemophilus influenzae SR27914 clinical isolate assessed as […] by CLSI broth microdilution method; format: functional
[5] = target: Cytochrome P450 2D6 (Homo sapiens, UniProt P10635); assay: Inhibition of human CYP2D6 assessed as dextromethorphan O-demethylation after 20 mins by LC-MS/MS analysis; format: ADME
Chain of Cytochrome P450 2D6 (P10635 whole entry): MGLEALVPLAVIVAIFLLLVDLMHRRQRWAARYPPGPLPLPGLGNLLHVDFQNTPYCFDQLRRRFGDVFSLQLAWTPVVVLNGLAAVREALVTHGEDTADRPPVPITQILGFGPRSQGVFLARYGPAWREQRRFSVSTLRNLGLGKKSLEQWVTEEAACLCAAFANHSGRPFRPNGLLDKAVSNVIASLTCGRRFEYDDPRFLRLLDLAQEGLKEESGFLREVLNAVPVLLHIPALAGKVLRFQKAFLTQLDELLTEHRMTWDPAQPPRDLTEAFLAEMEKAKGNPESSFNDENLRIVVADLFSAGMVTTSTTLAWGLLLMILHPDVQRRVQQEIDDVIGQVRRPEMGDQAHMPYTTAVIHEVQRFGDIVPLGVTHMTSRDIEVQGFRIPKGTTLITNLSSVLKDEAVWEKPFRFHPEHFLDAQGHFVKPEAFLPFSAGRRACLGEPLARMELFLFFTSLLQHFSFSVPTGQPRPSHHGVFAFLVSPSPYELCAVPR

[6] = tested on: Moraxella catarrhalis; assay: Antibacterial activity against Moraxella catarrhalis SR26840 clinical isolate assessed as […] by CLSI broth microdilution method; format: functional
[7] = tested on: Enterococcus faecium; assay: Antibacterial activity against Enterococcus faecium SR7940 clinical isolate assessed as […] by CLSI broth microdilution method; format: functional
[8] = tested on: Staphylococcus aureus; assay: Antibacterial activity against linezolid-resistant Staphylococcus aureus NRS271 clinical isolate harboring G2576T mutation in peptidyl transferase center domain V of 23S rRNA gene assessed as […] by CLSI broth microdilution method; format: functional
[9] = tested on: Staphylococcus aureus; assay: Antibacterial activity against Staphylococcus aureus Smith clinical isolate assessed as […] by CLSI broth microdilution method; format: functional
[10] = tested on: Staphylococcus aureus; assay: Ratio of linezolid MIC to compound MIC for Staphylococcus aureus Smith clinical isolate; format: functional
[11] = tested on: Enterococcus faecalis; assay: Antibacterial activity against Enterococcus faecalis SR1004 clinical isolate assessed as […] by CLSI broth microdilution method; format: functional
[12] = tested on: Staphylococcus aureus; assay: Antibacterial activity against methicillin-resistant Staphylococcus aureus SR3637 clinical isolate infected in po dosed JCL/ICR systemic infection model assessed as mortality administered after 1 hr of infection measured for 7 days; format: functional
[13] = tested on: Staphylococcus aureus; assay: Antibacterial activity against methicillin-resistant Staphylococcus aureus SR3637 clinical isolate infected in iv dosed JCL/ICR systemic infection model assessed as mortality administered after 1 hr of infection measured for 7 days; format: functional
[14] = target: T1, MAO-B (Rattus norvegicus, UniProt P19643); assay: Inhibition of rat forebrain MAO-B using [14C]PEA as substrate at 30 uM preincubated for 20 mins followed by substrate addition measured after 10 mins by liquid scintillation counting analysis; conditions: probe [14C]PEA
T1 sequence (P19643 whole entry): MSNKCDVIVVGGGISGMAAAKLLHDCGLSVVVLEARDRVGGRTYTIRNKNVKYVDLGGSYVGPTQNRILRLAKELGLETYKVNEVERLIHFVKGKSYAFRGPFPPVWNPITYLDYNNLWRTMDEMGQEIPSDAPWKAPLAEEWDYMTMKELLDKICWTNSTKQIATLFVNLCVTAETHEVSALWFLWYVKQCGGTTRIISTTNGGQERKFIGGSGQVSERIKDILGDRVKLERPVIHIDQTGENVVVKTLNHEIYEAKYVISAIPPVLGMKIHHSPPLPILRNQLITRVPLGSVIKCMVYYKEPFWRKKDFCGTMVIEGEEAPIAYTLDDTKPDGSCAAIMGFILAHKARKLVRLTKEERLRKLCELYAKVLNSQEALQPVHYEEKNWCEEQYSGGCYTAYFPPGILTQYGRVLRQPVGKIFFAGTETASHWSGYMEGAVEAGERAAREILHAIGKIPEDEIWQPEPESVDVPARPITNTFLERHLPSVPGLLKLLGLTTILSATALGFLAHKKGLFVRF

[15] = target: T2, Cytochrome P450 1A2 (Homo sapiens, UniProt P05177); assay: Inhibition of human CYP1A2 assessed as ethoxyresorufin O-deethylation after 20 mins by fluorescence plate reader; format: ADME
T2 sequence (P05177 whole entry): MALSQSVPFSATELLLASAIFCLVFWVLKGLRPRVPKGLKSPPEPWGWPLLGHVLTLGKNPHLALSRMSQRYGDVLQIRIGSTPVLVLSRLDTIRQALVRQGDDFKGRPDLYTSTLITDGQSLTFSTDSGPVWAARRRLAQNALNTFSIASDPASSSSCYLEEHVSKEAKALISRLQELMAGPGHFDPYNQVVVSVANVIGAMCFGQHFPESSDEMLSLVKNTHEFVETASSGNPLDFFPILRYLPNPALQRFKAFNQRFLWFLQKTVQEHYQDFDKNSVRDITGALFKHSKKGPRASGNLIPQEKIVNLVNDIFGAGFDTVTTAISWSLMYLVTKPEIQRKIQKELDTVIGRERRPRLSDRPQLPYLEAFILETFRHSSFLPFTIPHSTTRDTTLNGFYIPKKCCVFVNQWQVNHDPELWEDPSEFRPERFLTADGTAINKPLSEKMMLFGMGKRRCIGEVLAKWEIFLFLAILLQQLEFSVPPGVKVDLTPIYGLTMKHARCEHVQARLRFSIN

[16] = tested on: Staphylococcus aureus; assay: Antibacterial activity against methicillin-resistant Staphylococcus aureus SR3637 clinical isolate assessed as […] by CLSI broth microdilution method; format: functional
[17] = target: T3, MAO-A (Rattus norvegicus, UniProt P21396); assay: Inhibition of rat forebrain MAO-A using [14C]5-HT as substrate at 30 uM preincubated for 20 mins followed by substrate addition measured after 5 mins by liquid scintillation counting analysis; conditions: probe [14C]5-HT
T3 sequence (P21396 whole entry): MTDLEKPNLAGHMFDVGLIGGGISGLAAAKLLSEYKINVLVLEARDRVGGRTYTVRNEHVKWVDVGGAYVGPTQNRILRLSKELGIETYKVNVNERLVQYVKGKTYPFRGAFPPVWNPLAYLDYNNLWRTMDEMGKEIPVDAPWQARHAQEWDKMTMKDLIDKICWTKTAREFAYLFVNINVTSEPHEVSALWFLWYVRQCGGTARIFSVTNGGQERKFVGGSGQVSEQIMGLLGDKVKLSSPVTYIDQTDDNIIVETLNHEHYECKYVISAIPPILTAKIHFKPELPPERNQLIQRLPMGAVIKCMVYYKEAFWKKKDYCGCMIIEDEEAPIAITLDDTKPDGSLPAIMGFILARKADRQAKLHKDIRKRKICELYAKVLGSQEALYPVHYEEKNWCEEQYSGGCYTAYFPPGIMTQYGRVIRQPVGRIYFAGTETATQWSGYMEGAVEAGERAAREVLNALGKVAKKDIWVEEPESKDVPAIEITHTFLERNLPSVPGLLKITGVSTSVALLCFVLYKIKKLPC

[18] = Tmax in ICR mouse at 5.56 mg/kg, po by LC-MS/MS analysis; format: ADME, organism-based; design: dose 5.56 mg/kg, route oral; conditions: in vivo
[19] = AUC (infinity) in ICR mouse at 5.56 mg/kg, po by LC-MS/MS analysis; format: ADME, organism-based; design: time infinity, dose 5.56 mg/kg, route oral; conditions: plasma
[20] = tested on: Streptococcus pneumoniae; assay: Antibacterial activity against penicillin-resistant Streptococcus pneumoniae SR11031 clinical isolate assessed as […] by CLSI broth microdilution method; format: functional
[21] = target: Cytochrome P450 2C9 (Homo sapiens, UniProt P11712); assay: Inhibition of human CYP2C9 assessed as tolbutamide hydroxylation after 20 mins by LC-MS/MS analysis; format: ADME
Chain of Cytochrome P450 2C9 (P11712 whole entry): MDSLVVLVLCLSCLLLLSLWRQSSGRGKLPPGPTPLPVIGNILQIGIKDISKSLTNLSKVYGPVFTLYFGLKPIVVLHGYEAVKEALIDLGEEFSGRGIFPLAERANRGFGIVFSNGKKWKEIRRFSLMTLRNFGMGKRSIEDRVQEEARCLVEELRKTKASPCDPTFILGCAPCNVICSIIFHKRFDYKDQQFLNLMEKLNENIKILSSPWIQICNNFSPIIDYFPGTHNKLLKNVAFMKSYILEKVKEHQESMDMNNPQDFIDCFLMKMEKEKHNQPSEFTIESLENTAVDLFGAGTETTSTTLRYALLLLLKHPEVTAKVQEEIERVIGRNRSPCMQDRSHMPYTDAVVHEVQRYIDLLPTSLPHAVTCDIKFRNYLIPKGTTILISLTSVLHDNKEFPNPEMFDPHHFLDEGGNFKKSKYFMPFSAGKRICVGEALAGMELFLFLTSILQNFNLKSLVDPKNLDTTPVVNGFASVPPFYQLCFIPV

[22] = target: Cytochrome P450 3A4 (Homo sapiens, UniProt P08684); assay: Inhibition of human CYP3A4 assessed as terfenadine hydroxylation after 20 mins by LC-MS/MS analysis; format: ADME
Chain of Cytochrome P450 3A4 (P08684 whole entry): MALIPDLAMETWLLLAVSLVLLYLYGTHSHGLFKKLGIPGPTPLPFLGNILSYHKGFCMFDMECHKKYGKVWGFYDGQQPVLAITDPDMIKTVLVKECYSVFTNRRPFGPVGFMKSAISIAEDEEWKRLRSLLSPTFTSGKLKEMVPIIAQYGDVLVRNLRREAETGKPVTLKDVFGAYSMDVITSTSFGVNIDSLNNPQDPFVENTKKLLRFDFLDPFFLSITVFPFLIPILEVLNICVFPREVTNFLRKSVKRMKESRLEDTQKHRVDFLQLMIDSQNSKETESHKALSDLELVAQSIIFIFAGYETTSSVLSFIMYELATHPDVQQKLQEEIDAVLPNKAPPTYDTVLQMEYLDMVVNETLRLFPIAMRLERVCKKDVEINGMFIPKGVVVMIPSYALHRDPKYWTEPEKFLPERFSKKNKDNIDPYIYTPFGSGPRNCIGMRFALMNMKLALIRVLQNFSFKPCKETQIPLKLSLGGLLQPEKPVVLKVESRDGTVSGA

[23] = tested on: Staphylococcus aureus; assay: Antibacterial activity against Staphylococcus aureus SR20549 clinical isolate assessed as […] by CLSI broth microdilution method; format: functional
[24] = tested on: Streptococcus pneumoniae; assay: Antibacterial activity against Streptococcus pneumoniae SR26207 clinical isolate assessed as […] by CLSI broth microdilution method; format: functional
[25] = Cmax in ICR mouse at 67.7 mg/kg, po by LC-MS/MS analysis; format: ADME, organism-based; design: dose 67.7 mg/kg, route oral; conditions: in vivo
[26] = Tmax in ICR mouse at 67.7 mg/kg, po by LC-MS/MS analysis; format: ADME, organism-based; design: dose 67.7 mg/kg, route oral; conditions: in vivo
[27] = AUC (infinity) in ICR mouse at 67.7 mg/kg, po by LC-MS/MS analysis; format: ADME, organism-based; design: time infinity, dose 67.7 mg/kg, route oral; conditions: plasma

Structure (SMILES) | MIC [4] | IC50 [5] | MIC [6] | MIC [7] | MIC [8] | MIC [9] | MIC [11] | ED50 [12] | ED50 [13] | inhibition at 10 min, 30 µM [14] | IC50 [15] | MIC [16] | inhibition at 5 min, 30 µM [17] | MIC [20] | IC50 [21] | IC50 [22] | MIC [23] | MIC [24] | other results
CC(=O)NC[C@H]1CN(c2ccc(-c3ccn4ncnc4c3)c(F)c2)C(=O)O1 | 4 µg/mL (≈ 10.8 µM) | > 20 µM | 4 µg/mL (≈ 10.8 µM) | 0.25 µg/mL (≈ 0.677 µM) | 4 µg/mL (≈ 10.8 µM) | 0.5 µg/mL (≈ 1.35 µM) | 0.25 µg/mL (≈ 0.677 µM) | 0.55 mg/kg | 0.34 mg/kg | 78.2% | > 20 µM | 0.25 µg/mL (≈ 0.677 µM) | 55.9% | ≤ 0.063 µg/mL | > 20 µM | > 20 µM | 0.25 µg/mL (≈ 0.677 µM) | ≤ 0.063 µg/mL | Cmax [1]: 4780 ng/mL; Ratio ED50 [2]: 4; Ratio [3]: 2; Ratio [10]: 4; Tmax [18]: 60 min; AUC(0-inf) [19]: 30900 ng·h/mL
O=C1O[C@@H](Cn2ccnn2)CN1c1ccc(-c2ccc3nccn3c2)c(F)c1 | 4 µg/mL (≈ 10.6 µM) | – | 4 µg/mL (≈ 10.6 µM) | 0.5 µg/mL (≈ 1.32 µM) | 4 µg/mL (≈ 10.6 µM) | 0.5 µg/mL (≈ 1.32 µM) | 0.5 µg/mL (≈ 1.32 µM) | – | – | – | – | 0.25 µg/mL (≈ 0.661 µM) | – | ≤ 0.063 µg/mL | – | – | 0.25 µg/mL (≈ 0.661 µM) | ≤ 0.063 µg/mL | –
O=C1O[C@@H](Cn2ccnn2)CN1c1ccc(-c2ccn3ccnc3c2)c(F)c1 | 2 µg/mL (≈ 5.29 µM) | > 20 µM | 2 µg/mL (≈ 5.29 µM) | 0.25 µg/mL (≈ 0.661 µM) | 2 µg/mL (≈ 5.29 µM) | 0.25 µg/mL (≈ 0.661 µM) | 0.25 µg/mL (≈ 0.661 µM) | 1.02 mg/kg | 0.95 mg/kg | 26.7% | > 20 µM | 0.125 µg/mL (≈ 0.33 µM) | 41.2% | ≤ 0.063 µg/mL | > 20 µM | 15 µM | 0.125 µg/mL (≈ 0.33 µM) | ≤ 0.063 µg/mL | –
O=C1O[C@@H](Cn2ccnn2)CN1c1ccc(-c2ccc3ncnn3c2)c(F)c1 | 4 µg/mL (≈ 10.5 µM) | – | 8 µg/mL (≈ 21.1 µM) | 0.25 µg/mL (≈ 0.659 µM) | 8 µg/mL (≈ 21.1 µM) | 0.5 µg/mL (≈ 1.32 µM) | 0.5 µg/mL (≈ 1.32 µM) | – | – | – | – | 0.25 µg/mL (≈ 0.659 µM) | – | ≤ 0.063 µg/mL | – | – | 0.25 µg/mL (≈ 0.659 µM) | ≤ 0.063 µg/mL | –
O=C1O[C@@H](Cn2ccnn2)CN1c1ccc(-c2ccn3ncnc3c2)c(F)c1 | 2 µg/mL (≈ 5.27 µM) | > 20 µM | 4 µg/mL (≈ 10.5 µM) | 0.25 µg/mL (≈ 0.659 µM) | 2 µg/mL (≈ 5.27 µM) | 0.25 µg/mL (≈ 0.659 µM) | 0.25 µg/mL (≈ 0.659 µM) | 0.95 mg/kg | – | 27.9% | > 20 µM | 0.25 µg/mL (≈ 0.659 µM) | 33.2% | ≤ 0.063 µg/mL | > 20 µM | > 20 µM | 0.125 µg/mL (≈ 0.33 µM) | ≤ 0.063 µg/mL | –
CC(=O)NC[C@H]1CN(c2ccc(N3CCOCC3)c(F)c2)C(=O)O1 [LINEZOLID] | 16 µg/mL (≈ 47.4 µM) | > 20 µM | 8 µg/mL (≈ 23.7 µM) | 2 µg/mL (≈ 5.93 µM) | 32 µg/mL (≈ 94.9 µM) | – | – | 1.98 mg/kg | – | – | > 20 µM | – | – | – | > 20 µM | > 20 µM | – | – | Cmax [25]: 37000 ng/mL; Tmax [26]: 30 min; AUC(0-inf) [27]: 162000 ng·h/mL
